According to paper PMC7112121 (Bioorganic Chemistry, 2019):
≈ marks a conversion by molar mass, not a printed value.

What was measured:
[1] = system: Feline herpesvirus; assay: Antiviral CPE reduction assay, Feline herpesvirus in CRFK cells; type: cell-based; details: Felid alphaherpesvirus 1, CRFK, read-out: Antiviral EC50 Feline herpesvirus
[2] = system: HSV-1; assay: Antiviral CPE reduction assay, HSV-1 in HEL cells; type: cell-based, Herpes simplex virus-1; details: for EC50: Human alphaherpesvirus 1, HEL, read-out: Antiviral EC50 HSV-1; for Antiviral EC50 HSV-1: HEL cells, CPE by microscopy, mean of two experiments
[3] = system: ACV^r-HSV-1; assay: Antiviral CPE reduction assay, ACVr-HSV-1 in HEL cells; type: cell-based; details: for EC50: Human alphaherpesvirus 1, HEL, read-out: Antiviral EC50 ACV^r-HSV-1; for Antiviral EC50 ACV^r-HSV-1: HEL cells, CPE by microscopy, mean of two experiments
[4] = system: HSV-2; assay: Antiviral CPE reduction assay, HSV-2 in HEL cells; type: cell-based, Herpes simplex virus-2; details: for EC50: Human alphaherpesvirus 2, HEL, read-out: Antiviral EC50 HSV-2; for Antiviral EC50 HSV-2: HEL cells, CPE by microscopy, mean of two experiments
[5] = system: Vaccinia virus; assay: microbe, parasite or virus in culture; type: cell-based; details: for EC50: Orthopoxvirus vaccinia, HEL, read-out: Antiviral EC50 Vaccinia virus
[6] = system: Parainfluenza-3 virus; assay: Antiviral CPE reduction assay, Parainfluenza-3 virus in VERO cells; type: cell-based; details: for EC50: Vero, read-out: Antiviral EC50 Parainfluenza-3 virus; for Antiviral EC50 Parainfluenza-3 virus: VERO cells, CPE by microscopy, mean of two experiments
[7] = system: Reovirus-1; assay: Antiviral CPE reduction assay, Reovirus-1 in VERO cells; type: cell-based; details: for EC50: Vero, read-out: Antiviral EC50 Reovirus-1; for Antiviral EC50 Reovirus-1: VERO cells, CPE by microscopy, mean of two experiments
[8] = system: Sindbis virus; assay: Antiviral CPE reduction assay, Sindbis virus in VERO cells; type: cell-based; details: for EC50: Sindbis virus, Vero, read-out: Antiviral EC50 Sindbis virus; for Antiviral EC50 Sindbis virus: VERO cells, CPE by microscopy, mean of two experiments
[9] = system: Coxsackie B4 virus; assay: Antiviral CPE reduction assay, Coxsackie B4 virus in VERO cells; type: cell-based; details: for EC50: Enterovirus B, B4, Vero, read-out: Antiviral EC50 Coxsackie B4 virus; for Antiviral EC50 Coxsackie B4 virus: VERO cells, CPE by microscopy, mean of two experiments
[10] = system: Punto Toro virus; assay: Antiviral CPE reduction assay, Punto Toro virus in VERO cells; type: cell-based, Punta toro virus; details: for EC50: Punta Toro virus, Vero, read-out: Antiviral EC50 Punto Toro virus; for Antiviral EC50 Punto Toro virus: VERO cells, CPE by microscopy, mean of two experiments
[11] = system: human embryonic lung (HEL) fibroblast cells; details: minimum cytotoxic concentration, microscopic inspection of cell morphology
[12] = system: VERO cells; details: minimum cytotoxic concentration, microscopic inspection of cell morphology
[13] = in vitro; details: cat
[14] = system: Feline coronavirus; assay: microbe, parasite or virus in culture; details: Alphacoronavirus 1, CRFK, read-out: Antiviral EC50 Feline coronavirus
[15] = system: Mycobacterium tuberculosis H37Rv; details: for H37Rv Finding Activity: M. tuberculosis H37Rv, MABA in BACTEC 12B medium
[16] = system: Mycobacterium tuberculosis H37Rv; assay: microbe, parasite or virus in culture; details: for MIC: read-out: H37Rv Finding MIC
[17] = in vitro; details: African green monkey
[18] = system: Vesicular stomatitis virus; type: cell-based
[19] = system: DNA virus; assay: Anti-DNA virus activity in HEL cells; type: cell-based
[20] = system: CRFK feline kidney cells; details: MTS cell viability assay

| Structure (SMILES) | EC50 [1] [µg/mL] | EC50 [2] [µg/mL] | EC50 [3] [µg/mL] | EC50 [4] [µg/mL] | EC50 [5] [µg/mL] | EC50 [6] [µg/mL] | EC50 [7] [µg/mL] | EC50 [8] [µg/mL] | EC50 [9] [µg/mL] | EC50 [10] [µg/mL] | Cytotoxicity MCC [11] [µg/mL] | Cytotoxicity MCC [12] [µg/mL] | EC50 [14] [µg/mL] | H37Rv Finding Activity [15] | MIC [16] [µg/mL] | Antiviral EC50 HSV-1 [2] [µg/mL] | Antiviral EC50 ACV^r-HSV-1 [3] [µg/mL] | Antiviral EC50 HSV-2 [4] [µg/mL] | Antiviral EC50 Vaccinia virus [5] [µg/mL] | Antiviral EC50 Vesicular stomatitis virus [18] [µg/mL] | other results |
| --- | --- | --- | --- | --- | --- | --- | --- | --- | --- | --- | --- | --- | --- | --- | --- | --- | --- | --- | --- | --- | --- |
| O=C(Cc1csc2nc(-c3ccc(Br)cc3)cn12)NN1C(=O)CSC12CCC(c1ccc(O)cc1)CC2 (stereo not drawn) [Compound 5d, 2-[6-(4-Bromophenyl)imidazo[2,1-b]thiazole-3-yl]-N-(3-oxo-8-(4-hydroxyphenyl)-1-thia-4-azaspiro[4.5]dec-4-yl)acetamide] | 21 (≈ 35.1 µM) | > 100 | > 100 | > 100 | > 100 | > 100 | > 100 | > 100 | > 100 | > 100 | 20 | >100 | 4.8 (≈ 8.03 µM) |  |  |  |  |  |  |  | selectivity ratio [13]: > 20 |
| O=C(Cc1csc2nc(-c3ccc(Br)cc3)cn12)NN1C(=O)CSC12CCC(c1ccccc1)CC2 (stereo not drawn) [Compound 5c, 2-[6-(4-Bromophenyl)imidazo[2,1-b]thiazole-3-yl]-N-(3-oxo-8-phenyl-1-thia-4-azaspiro[4.5]dec-4-yl)acetamide] | > 100 | > 100 | > 100 | > 100 | > 100 | > 100 | > 100 | > 100 | > 100 | > 100 | 20 | 20 | > 100 | Active | 0.854 (≈ 1.47 µM) |  |  |  |  |  | IC50 ([16]; read-out: H37Rv Finding lC50): 0.76 µg/mL (≈ 1.31 µM) |
| CO[C@H]1/C=C/O[C@@]2(C)Oc3c(C)c(O)c4c(O)c(c(/C=N/N5CCN(C)CC5)c(O)c4c3C2=O)NC(=O)/C(C)=C\C=C\[C@H](C)[C@H](O)[C@@H](C)[C@@H](O)[C@@H](C)[C@H](OC(C)=O)[C@@H]1C [Rifampin, reference compound] |  |  |  |  |  |  |  |  |  |  |  |  |  | Active | 0.125 (≈ 0.152 µM) |  |  |  |  |  | CC50 [17]: > 100 µg/mL |
| O=C(Cc1csc2nc(-c3ccc(Br)cc3)cn12)NN=C1CCC(c2ccccc2)CC1 (stereo not drawn) [Compound 4c, 6-(4-Bromophenyl)–N^2-(4-phenylcyclohexylidene)imidazo[2,1-b]thiazole-3-acetohydrazide] |  |  |  |  |  |  |  |  |  |  | ≥100 | >100 |  | Weak Active |  | 45 | ≥45 | ≥45 | 45 | >100 | Antiviral EC50 Parainfluenza-3 virus [6]: >100 µg/mL; Antiviral EC50 Reovirus-1 [7]: >100 µg/mL; Antiviral EC50 Sindbis virus [8]: >100 µg/mL; Antiviral EC50 Coxsackie B4 virus [9]: >100 µg/mL; Antiviral EC50 Punto Toro virus [10]: >100 µg/mL; antiviral EC50 values, anti-DNA virus activity [19]: about 45 µg/mL; Cytotoxicity CC50 [20]: >100 µg/mL; H37Rv Finding MIC [15]: >100 µg/mL |
| O=C(Cc1csc2nc(-c3ccc(Br)cc3)cn12)NN=C1CCC(c2ccc(O)cc2)CC1 (stereo not drawn) [Compound 4d, 6-(4-Bromophenyl)–N^2-(4-hydroxyphenylcyclohexylidene)imidazo[2,1-b]thiazole-3-acetohydrazide] |  |  |  |  |  |  |  |  |  |  | >100 | >100 |  |  |  | 45 | 45 | 45 | 45 | >100 | Antiviral EC50 Parainfluenza-3 virus [6]: >100 µg/mL; Antiviral EC50 Reovirus-1 [7]: >100 µg/mL; Antiviral EC50 Sindbis virus [8]: >100 µg/mL; Antiviral EC50 Coxsackie B4 virus [9]: >100 µg/mL; Antiviral EC50 Punto Toro virus [10]: >100 µg/mL; antiviral EC50 values, anti-DNA virus activity [19]: about 45 µg/mL; Cytotoxicity CC50 [20]: 68 µg/mL |
